Laboratory results from paper PMC4621749 (The Journal of General Physiology, 2015).

Biological target: T1, frog TRPV3 (Xenopus tropicalis TRPV3) (Xenopus tropicalis, UniProt F6UZP3)
T1 sequence (F6UZP3 1-773): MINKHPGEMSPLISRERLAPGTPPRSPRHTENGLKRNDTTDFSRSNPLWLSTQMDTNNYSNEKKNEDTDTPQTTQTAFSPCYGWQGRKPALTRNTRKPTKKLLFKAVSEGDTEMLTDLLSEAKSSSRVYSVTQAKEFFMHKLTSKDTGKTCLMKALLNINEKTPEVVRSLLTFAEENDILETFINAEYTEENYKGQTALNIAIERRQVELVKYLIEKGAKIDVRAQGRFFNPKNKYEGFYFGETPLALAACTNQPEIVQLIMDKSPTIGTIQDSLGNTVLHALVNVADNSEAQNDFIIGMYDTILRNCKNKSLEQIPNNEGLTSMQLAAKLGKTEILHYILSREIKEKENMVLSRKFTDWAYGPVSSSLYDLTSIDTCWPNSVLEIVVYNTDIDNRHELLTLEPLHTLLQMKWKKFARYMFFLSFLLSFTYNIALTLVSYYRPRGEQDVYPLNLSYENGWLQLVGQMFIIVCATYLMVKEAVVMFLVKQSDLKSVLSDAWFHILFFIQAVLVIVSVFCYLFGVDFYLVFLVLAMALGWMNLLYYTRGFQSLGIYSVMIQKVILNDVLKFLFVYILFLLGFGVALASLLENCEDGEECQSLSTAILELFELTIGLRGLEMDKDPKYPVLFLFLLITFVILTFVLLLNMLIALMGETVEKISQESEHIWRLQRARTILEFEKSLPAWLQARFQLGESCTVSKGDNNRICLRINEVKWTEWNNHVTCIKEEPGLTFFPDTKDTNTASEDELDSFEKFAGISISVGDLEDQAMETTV
Assay: whole-cell patch clamp, HEK293, Hill fit of current density
Format: cell-based

EC50: 269 ± 28 µM
Structure (SMILES): NCCOB(c1ccccc1)c1ccccc1 [2-APB]
